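Dose response: 5 concentrations. Exposure: 48 h. Format: 96-well plates. Endpoint: linear interpolation; highest concentration if not reached. GI50 marks 50% less growth. The concentration for full growth arrest is given as TGI.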
Legend:
Test in all cases: DTP human tumour cell line panel, 48 h
IGROV1 ovarian = test system: IGROV1 ovarian
KM12 colon = test system: KM12 colon
MCF7 breast = test system: MCF7 breast
NCI-H226 lung = test system: NCI-H226 lung
OVCAR-4 ovarian = test system: OVCAR-4 ovarian
SK-OV-3 ovarian = test system: SK-OV-3 ovarian
SNB-75 CNS = test system: SNB-75 CNS
SW-620 colon = test system: SW-620 colon
TK-10 renal = test system: TK-10 renal
UO-31 renal = test system: UO-31 renal

Row | Structure (SMILES) | GI50 (IGROV1 ovarian) | TGI (IGROV1 ovarian) | GI50 (KM12 colon) | TGI (KM12 colon) | GI50 (MCF7 breast) | TGI (MCF7 breast) | GI50 (NCI-H226 lung) | GI50 (OVCAR-4 ovarian) | TGI (OVCAR-4 ovarian) | GI50 (SK-OV-3 ovarian) | TGI (SK-OV-3 ovarian) | GI50 (SNB-75 CNS) | TGI (SNB-75 CNS) | GI50 (SW-620 colon) | TGI (SW-620 colon) | GI50 (TK-10 renal) | TGI (TK-10 renal) | GI50 (UO-31 renal) | TGI (UO-31 renal) | TGI (NCI-H226 lung)
1 | Cc1ccc(Cc2cnc(NC(=O)/C=C/c3cccc(C)c3)s2)cc1 | 0.334 µM | 15.5 µM | 0.14 µM | > 48.4 µM | 0.103 µM | > 100 µM | 0.608 µM | 0.842 µM | 4.71 µM | 0.85 µM | > 59.7 µM | 0.104 µM | 0.845 µM | 0.0731 µM | > 100 µM | 0.919 µM | 6.81 µM | 0.395 µM | 9.54 µM | –
2 | CC(=O)N1C/C(=C/c2ccc(Cl)cc2)C(=O)/C(=C/c2ccc(Cl)cc2)C1 | 0.761 µM | 2.11 µM | 0.255 µM | 0.676 µM | 0.292 µM | 1.13 µM | 1.17 µM | 0.795 µM | 3.22 µM | 1.61 µM | 3.39 µM | 0.963 µM | 2.64 µM | 0.297 µM | 0.981 µM | 1.94 µM | 4.1 µM | 0.887 µM | 2.35 µM | 3.49 µM
3 | C=C1C(=O)O[C@H]2[C@H]1CC/C(COC(=O)C(=O)c1cn(C)c3ccc(Cl)cc13)=C\CC[C@@]1(C)O[C@@H]21 | 1.17 µM | 2.78 µM | 2.48 µM | 7.46 µM | 0.391 µM | 3.19 µM | 1.46 µM | 2.26 µM | 12.4 µM | 3.28 µM | – | 1.61 µM | 3.8 µM | 0.857 µM | 10.9 µM | 1.42 µM | 2.98 µM | 0.817 µM | 2.17 µM | 3.08 µM
4 | O=C1CC(=O)N(C(=O)c2nn(-c3ccc(Cl)cc3)cc2O)N1 | 0.378 µM | 20.2 µM | 1.03 µM | > 100 µM | 1.24 µM | > 100 µM | 0.724 µM | 1.51 µM | > 100 µM | 1.85 µM | > 100 µM | 0.242 µM | > 100 µM | 2.19 µM | > 100 µM | 0.35 µM | > 65.2 µM | 0.529 µM | > 100 µM | > 96.6 µM
5 | O=c1ccs[nH]1 | – | 66.5 µM | – | 62.1 µM | – | 38.7 µM | – | – | 32.5 µM | – | 72.5 µM | – | 36.5 µM | – | 50.1 µM | – | 32.8 µM | – | 23 µM | 71.6 µM
6 | COc1ccc(-c2oc(=O)ccc2-c2cc(OC)c(OC)c(OC)c2)cc1O | – | – | 0.507 µM | > 48.7 µM | 0.421 µM | > 53.6 µM | 9.81 µM | 6.65 µM | > 100 µM | 1.65 µM | > 42.6 µM | 1.26 µM | > 100 µM | 0.612 µM | > 47.6 µM | 14.1 µM | > 84.1 µM | 3.72 µM | > 51.1 µM | > 96 µM
7 | O=S(=O)(NCCCNc1nccc(-c2c(-c3ccc(F)c(O)c3)nc3sccn23)n1)c1ccc(F)cc1 | 1.51 µM | 5.88 µM | 2.67 µM | 8.36 µM | 2.39 µM | 7.76 µM | 2.38 µM | – | – | 2.22 µM | 7.01 µM | 2.02 µM | 8.38 µM | 3.9 µM | > 100 µM | 4.33 µM | 86.3 µM | 2.96 µM | 7.77 µM | 6.98 µM
8 | O=C1NC(=O)C(c2ccccc2Cl)=C1Nc1cc(Cl)c(O)c(Cl)c1 | > 25 µM | > 25 µM | 12 µM | > 25 µM | > 13.8 µM | > 25 µM | – | 13.7 µM | > 25 µM | 16.3 µM | > 25 µM | > 13 µM | > 25 µM | 9.74 µM | > 25 µM | > 25 µM | > 25 µM | > 23.4 µM | > 25 µM | –
9 | c1ccc2c(NCCCCCCNc3c4ccccc4nc4ccccc34)c3ccccc3nc2c1 | – | – | – | 1.81 µM | – | 2.07 µM | – | – | 2.18 µM | – | 4.31 µM | – | 2.29 µM | – | 2.18 µM | – | 4.9 µM | – | 23.5 µM | 3.54 µM
10 | C=C(C)[C@@H]1CC[C@]2(C(=O)O)CC[C@]3(C)[C@H](CC[C@@H]4[C@@]5(C)CCC(NC(=O)c6cccc(OC(C)=O)c6OC(C)=O)C(C)(C)[C@@H]5CC[C@]43C)[C@@H]12 (some centres not stated) | 0.604 µM | 5.34 µM | 0.651 µM | 3.46 µM | 0.586 µM | 6.42 µM | 1.69 µM | 0.507 µM | > 100 µM | 1.89 µM | > 20.4 µM | 0.452 µM | 5.44 µM | – | – | 0.656 µM | > 100 µM | 0.283 µM | 1.43 µM | 4.59 µM
11 | CCOP(=O)(OCC)/C(=C/NC(=S)c1ccncc1)C(=O)OC | – | > 100 µM | – | > 100 µM | – | > 100 µM | – | – | > 100 µM | – | > 100 µM | – | – | – | > 100 µM | – | > 100 µM | – | > 100 µM | > 100 µM
12 | Cc1ccc(N2C(=O)C=C(C3=C(O)C(=O)N(c4ccc(C)cc4)C3=O)C2=O)cc1 | – | > 100 µM | – | – | – | > 100 µM | – | – | > 100 µM | – | > 100 µM | – | > 100 µM | – | > 100 µM | – | > 100 µM | – | > 100 µM | > 100 µM
13 | c1cc(N2CCCN(c3ccc(C4=NCCCN4)cc3)CC2)ccc1C1=NCCCN1 | > 100 µM | > 100 µM | > 100 µM | > 100 µM | > 100 µM | > 100 µM | > 100 µM | > 100 µM | > 100 µM | – | – | > 100 µM | > 100 µM | > 100 µM | > 100 µM | 52.5 µM | > 100 µM | > 100 µM | > 100 µM | > 100 µM
14 | CCN(CC)CCC(=O)c1ccc(C)cc1 | – | 37.6 µM | – | – | – | 17.4 µM | – | – | 50.1 µM | – | > 100 µM | – | > 100 µM | – | 36.9 µM | – | – | – | 42 µM | 63.6 µM
15 | Cc1occc1C(=S)Nc1ccc(Cl)c(C(=O)OC(C(C)C)C(C)C)c1 | – | 31.5 µM | – | 29.9 µM | – | 34 µM | – | – | 41.9 µM | – | 53.2 µM | – | – | – | 46.2 µM | – | 32.4 µM | – | 17.5 µM | 32.2 µM
